Data on 31 compounds can be found in patent publication US20070191336A1 (priority 2003, published 2007).

Structures are written as SMILES.

T1 sequence (Q16539 whole entry): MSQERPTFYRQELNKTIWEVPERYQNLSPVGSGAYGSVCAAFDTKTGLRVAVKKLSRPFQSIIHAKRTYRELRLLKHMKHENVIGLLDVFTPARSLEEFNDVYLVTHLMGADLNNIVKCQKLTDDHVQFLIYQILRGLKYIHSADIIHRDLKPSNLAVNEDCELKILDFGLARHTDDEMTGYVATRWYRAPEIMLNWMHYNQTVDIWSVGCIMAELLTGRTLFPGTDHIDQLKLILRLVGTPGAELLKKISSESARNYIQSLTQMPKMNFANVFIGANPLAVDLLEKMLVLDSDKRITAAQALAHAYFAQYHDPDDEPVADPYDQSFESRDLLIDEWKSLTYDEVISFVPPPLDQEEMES

The first experiment addresses T1, phospho p-38 alpha kinase (Homo sapiens, UniProt Q16539).
T1 construct: purchased Panvera
In words: P-38 alpha kinase assay (spectrophotometric, pyruvate kinase/lactate dehydrogenase coupled). The experiment is classed as biochemical. Particulars: Table 3; rates from […] to 2 h time frame. How it is done:
In this assay, the oxidation of NADH was continuously measured spectrophometrically. […] The reaction was initiated by adding ATP. The absorption at 340 nm was monitored continuously for up to 4 hours at 30° C. on Polarstar Optima plate reader (BMG). The kinase activity (reaction rate) was calculated from the slope at the time frame from 1.5 h to 2 h.
For inhibition determinations, test compounds were incubated with the reaction mixture for ˜5 min before adding ATP to start the reaction. […] IC50 values were calculated from a series of % inhibition values determined at a range of concentrations of each inhibitor using Prism to process the data and fit inhibition curves. Generally, the rates obtained at the time frame of 1.5 h to 2 h were used for these calculations.
What is called IC50 is the midpoint of a concentration-inhibition curve. Low values mean higher potency, high ones lower potency. Turning to `COc1cccc(-n2nc(C(C)(C)C)cc2NC(=O)Nc2ccsc2)c1` [Example 327, 1-(3-t-butyl-1-(3-methoxyphenyl)-1H-pyrazol-5-yl)-3-(thiophen-3-yl)urea], it took 810 nM to reach half-maximal inhibition (IC50).
The same measure, in the same setting: in the case of `COc1cccc(-n2nc(C(C)(C)C)cc2NC(=O)Nc2ccc3c(c2)OCO3)c1` [Example 329, 1-(benzo[d][1,3]dioxo-5-yl)-3-(3-t-butyl-1-(3-methoxyphenyl)-1H-pyrazol-5-yl)urea] it was 250 nM.
The same measure, in the same setting: in the case of `COc1cccc(-n2nc(-c3ccccc3)cc2NC(=O)Nc2cccc(Br)c2)c1` [Example 332] it was 50 nM.
The same measure, in the same setting: next, `COc1cccc(-n2nc(-c3ccccc3)cc2NC(=O)Nc2cccc(C(F)(F)F)c2)c1` [Example 333]: 2440 nM.
On to `COc1cccc(NC(=O)Nc2cc(-c3ccccc3)nn2-c2cccc(OC)c2)c1` [Example 334, 1-(3-methoxyphenyl)-3-(1-(3-methoxyphenyl)-3-phenyl-1H-pyrazol-5-yl)urea], for which the IC50 was determined as 2200 nM.
`COc1cccc(-n2nc(-c3ccccc3)cc2NC(=O)Nc2cccc(Cl)c2Cl)c1` [Example 335] gave an IC50 of 14 nM.
On the same count and under the same terms, in the case of `COc1cccc(-n2nc(C(F)(F)F)cc2NC(=O)Nc2cccc3ccccc23)c1` [Example 342, 1-(3-(trifluoromethyl)-1-(3-methoxyphenyl)-1H-pyrazol-5-yl)-3-(naphthalen-1-yl)urea] it was 1000 nM; in that of `COc1cccc(-n2nc(C(C)(C)C)cc2NC(=O)Nc2ccccc2F)c1` [Example 344, 1-[3-t-butyl-1-(3-methoxy-phenyl)-1H-pyrazol-5-yl]-3-(2-fluorophenyl)urea], 180 nM; in that of `COc1cccc(-n2nc(C(C)(C)C)cc2NC(=O)Nc2cccc(F)c2F)c1` [Example 345, 1-[3-t-butyl-1-(3-methoxy-phenyl)-1H-pyrazol-5-yl]-3-(2,3-difluorophenyl)urea], 270 nM.
For `CC(C)(C)c1cc(NC(=O)Nc2ccccc2F)n(-c2cccc(CC(N)=O)c2)n1` [Example 352, 1-{1-[3-(2-amino-2-oxoethyl)phenyl]-3-t-butyl-1H-pyrazol-5-yl}-3-(2-fluorophenyl)urea], the IC50 came to 43 nM.
On the same count and under the same terms, in the case of `CC(C)(C)c1cc(NC(=O)Nc2cccc(F)c2F)n(-c2cccc(C#N)c2)n1` [Example 355, 1-[3-t-butyl-1-(3-cyan-phenyl)-1H-pyrazol-5-yl]-3-(2,3-difluorophenyl)urea] it was 42 nM; in that of `CC(C)(C)c1cc(NC(=O)Nc2cccc(Br)c2)n(-c2cccc(C#N)c2)n1` [Example 356, 1-(3-t-butyl-1-(3-cyanophenyl)-1H-pyrazol-5-yl)-3-(3-bromophenyl)urea], 59 nM; in that of `CC(C)(C)c1cc(NC(=O)Nc2ccc3c(c2)OCO3)n(-c2cccc(C#N)c2)n1` [Example 357, 1-(benzo[d][1,3]dioxol-5-yl)-3-(3-t-butyl-1-(3-cyanophenyl)-1H-pyrazol-5-yl)urea], 130 nM.
For the compound `CC(C)(C)c1cc(NC(=O)Nc2ccc(Cl)cc2)n(-c2cccc(C#N)c2)n1` [Example 358, 1-(3-t-butyl-1-(3-cyanophenyl)-1H-pyrazol-5-yl)-3-(4-chlorophenyl)urea], half-maximal inhibition (IC50) required 100 nM.
In turn, `CC(C)(C)c1cc(NC(=O)Nc2cccc(Cl)c2Cl)n(-c2cccc(C#N)c2)n1` [Example 359] registered an IC50 of 13 nM.
The compound `COc1cccc(NC(=O)Nc2cc(C(C)(C)C)nn2-c2cccc(C#N)c2)c1` [Example 360] displayed an IC50 of 390 nM.

The same experiment, now with this note: read-out: % Inhibition @ concentration, Table 3; at 0.1 uM.
In the case of `COc1ccc(-n2nc(C(C)(C)C)cc2NC(=O)Nc2ccccc2F)cc1` [Example 346, 1-[3-t-butyl-1-(4-methoxyphenyl)-1H-pyrazol-5-yl]-3-(2-fluorophenyl)urea], the inhibition at 0.1 µM was 19%.
Still for that read-out and setting: in the case of `COc1ccc(-n2nc(C(C)(C)C)cc2NC(=O)Nc2cccc(C(F)(F)F)c2)cc1` [Example 347, 1-[3-t-butyl-1-(4-methoxyphenyl)-1H-pyrazol-5-yl]-3-(3-trifluoromethylphenyl)urea] it was 8%; in that of `COc1ccc(-n2nc(C(C)(C)C)cc2NC(=O)Nc2cccc(OC)c2)cc1` [Example 348, 1-[3-t-butyl-1-(4-methoxyphenyl)-1H-pyrazol-5-yl]-3-(3-methoxy-phenyl)urea], 17%; in that of `COc1ccc(-n2nc(C(C)(C)C)cc2NC(=O)Nc2cccc(Cl)c2)cc1` [Example 350, 1-[3-t-butyl-1-(4-methoxyphenyl)-1H-pyrazol-5-yl]-3-(3-chlorophenyl)urea], 39%.

Still in this experiment, the particulars now being: read-out: % Inhibition @ concentration, Table 3; at 1 uM.
Take `COc1cccc(-n2nc(C(C)(C)C)cc2NC(=O)Nc2ccc(N(C)C)cc2)c1` [Example 323, 1-(3-t-butyl-1-(3-methoxyphenyl)-1H-pyrazol-5-yl)-3-(4-(dimethylamino)phenyl)urea]: the inhibition at 1 µM was found to be 9%.
Same read-out and setting: in the case of `COc1ccc(-n2nc(C(C)(C)C)cc2NC(=O)Nc2ccccc2F)cc1` [Example 346, 1-[3-t-butyl-1-(4-methoxyphenyl)-1H-pyrazol-5-yl]-3-(2-fluorophenyl)urea] it was 63%.
Still for that read-out and setting: next, `COc1ccc(-n2nc(C(C)(C)C)cc2NC(=O)Nc2cccc(C(F)(F)F)c2)cc1` [Example 347, 1-[3-t-butyl-1-(4-methoxyphenyl)-1H-pyrazol-5-yl]-3-(3-trifluoromethylphenyl)urea]: 31%; `COc1ccc(-n2nc(C(C)(C)C)cc2NC(=O)Nc2cccc(OC)c2)cc1` [Example 348, 1-[3-t-butyl-1-(4-methoxyphenyl)-1H-pyrazol-5-yl]-3-(3-methoxy-phenyl)urea]: 47%; `COc1ccc(-n2nc(C(C)(C)C)cc2NC(=O)Nc2cccc(Cl)c2)cc1` [Example 350, 1-[3-t-butyl-1-(4-methoxyphenyl)-1H-pyrazol-5-yl]-3-(3-chlorophenyl)urea]: 64%.

The same experiment, now with this note: read-out: % Inhibition @ concentration, Table 3; at 2 uM.
For `COc1cccc(-n2nc(C)cc2NC(=O)Nc2cccc(C(F)(F)F)c2)c1` [Example 338, 1-(1-(3-methoxyphenyl)-3-methyl-1H-pyrazol-5-yl)-3-(3-(trifluoromethyl)phenyl)urea], the inhibition at 2 µM turned out to be 7%.
Same read-out and setting: in the case of `COc1cccc(NC(=O)Nc2cc(C)nn2-c2cccc(OC)c2)c1` [Example 339, 1-(3-methoxyphenyl)-3-(1-(3-methoxyphenyl)-3-methyl-1H-pyrazol-5-yl)urea] it was 9%.

The same experiment, now with this note: read-out: % Inhibition @ concentration, Table 3; at 10 uM.
Regarding `COc1cccc(-n2nc(C(C)(C)C)cc2NC(=O)Nc2ccc(N(C)C)cc2)c1` [Example 323, 1-(3-t-butyl-1-(3-methoxyphenyl)-1H-pyrazol-5-yl)-3-(4-(dimethylamino)phenyl)urea], the inhibition at 10 µM was determined as 51%.
Still for that read-out and setting: in the case of `COc1cccc(-n2nc(C(C)(C)C)cc2NC(=O)Nc2cccc(N(C)C)c2)c1` [Example 324, 1-(3-t-butyl-1-(3-methoxyphenyl)-1H-pyrazol-5-yl)-3-(3-(dimethylamino)phenyl)urea] it was 40%; in that of `COc1cccc(-n2nc(C(C)(C)C)cc2NC(=O)Nc2cccc(C#N)c2)c1` [Example 325, 1-(3-t-butyl-1-(3-methoxyphenyl)-1H-pyrazol-5-yl)-3-(3-cyanophenyl)urea], 54%; in that of `COc1cccc(NC(=O)Nc2cc(C(C)(C)C)nn2-c2cccc(OC)c2)c1` [Example 326, 1-(3-t-butyl-1-(3-methoxyphenyl)-1H-pyrazol-5-yl)-3-(3-methoxyphenyl)urea], 41%.
Still for that read-out and setting: in the case of `COc1cccc(-n2nc(C(C)(C)C)cc2NC(=O)Nc2cccnc2)c1` [Example 328, 1-(3-t-butyl-1-(3-methoxyphenyl)-1H-pyrazol-5-yl)-3-(pyridin-3-yl)urea] it was 68%.
Same read-out and setting: next, `COc1cccc(-n2nc(-c3ccccc3)cc2NC(=O)Nc2cccc(Cl)c2)c1` [Example 331]: 71%; `COc1cccc(-n2nc(C)cc2NC(=O)Nc2cccc(Cl)c2)c1` [Example 336, 1-(3-chlorophenyl)-3-(1-(3-methoxyphenyl)-3-methyl-1H-pyrazol-5-yl)urea]: 27%.
`COc1cccc(-n2nc(C)cc2NC(=O)Nc2cccc(Br)c2)c1` [Example 337, 1-(3-bromophenyl)-3-(1-(3-methoxyphenyl)-3-methyl-1H-pyrazol-5-yl)urea]: the inhibition at 10 µM was 8%.
In the case of `COc1cccc(-n2nc(C)cc2NC(=O)Nc2cccc(Cl)c2Cl)c1` [Example 340, 1-(2,3-dichlorophenyl)-3-(1-(3-methoxyphenyl)-3-methyl-1H-pyrazol-5-yl)urea], the inhibition at 10 µM stood at 31%.
